Results taken from the NIST ThermoML archive (doi:10.1021/acs.jced.5b00348).
Where “and” joins values, the source holds several entries; their conditions need not be identical. Equal values may be shown once.

Conditions: for vapor or sublimation pressure: Closed cell (Static) method

FC(F)(F)/C=C/Cl [(E)-1-chloro-3,3,3-trifluoroprop-1-ene]
Conditions | mass density | speed of sound
379.78 K, 201.47 kPa, Gas | – | 156.72 m/s
379.78 K, 201.53 kPa, Gas | – | 156.72 m/s
379.78 K, 407.41 kPa, Gas | – | 151.7 m/s
379.78 K, 407.46 kPa, Gas | – | 151.7 m/s
379.78 K, 407.5 kPa, Gas | – | 151.7 m/s
379.78 K, 407.74 kPa, Gas | – | 151.69 m/s
379.78 K, 407.82 kPa, Gas | – | 151.69 m/s
379.78 K, 407.85 kPa, Gas | – | 151.69 m/s
379.78 K, 568.62 kPa, Gas | – | 147.47 m/s
379.78 K, 796.76 kPa, Gas | – | 140.89 m/s
379.78 K, 796.81 kPa, Gas | – | 140.89 m/s
379.79 K, 407.85 kPa, Gas | – | 151.69 m/s
379.79 K, 796.72 kPa, Gas | – | 140.89 m/s
379.79 K, 959.4 kPa, Gas | – | 135.64 m/s
379.79 K, 959.42 kPa, Gas | – | 135.64 m/s
379.79 K, 959.44 kPa, Gas | – | 135.64 m/s
380 K, 2975.2 kPa, Fluid (supercritical or subcritical phases) | 1043.29 kg/m3 | –
380 K, 3879.4 kPa, Liquid | 1051.51 kg/m3 | –
380.03 K, 547.9 kPa, Gas | 25.032 kg/m3 | –
380.03 K, 548.2 kPa, Gas | 25.047 kg/m3 | –
380.04 K, 428.4 kPa, Gas | 19.095 kg/m3 | –
383.99 K, 1844.2 kPa, Fluid (supercritical or subcritical phases) | 1016.28 kg/m3 | –
383.99 K, 4425 kPa, Fluid (supercritical or subcritical phases) | 1042.8 kg/m3 | –
385 K, 5748.6 kPa, Liquid | 1050.89 kg/m3 | –
389.93 K, 1284.7 kPa, Gas | 67.575 kg/m3 | –
390 K, 7622.7 kPa, Liquid | 1050.32 kg/m3 | –
390.03 K, 572 kPa, Gas | 25.32 kg/m3 | –
390.03 K, 572.2 kPa, Gas | 25.33 kg/m3 | –
390.04 K, 448.1 kPa, Gas | 19.387 kg/m3 | –
391.99 K, 2100.9 kPa, Fluid (supercritical or subcritical phases) | 985.96 kg/m3 | –
391.99 K, 4502.1 kPa, Fluid (supercritical or subcritical phases) | 1015.42 kg/m3 | –
395 K, 2051.4 kPa, Liquid | 971.55 kg/m3 | –
395 K, 4073.9 kPa, Liquid | 999.34 kg/m3 | –
395 K, 6005.8 kPa, Liquid | 1020.09 kg/m3 | –
395 K, 7979.4 kPa, Liquid | 1037.8 kg/m3 | –
395 K, 9495 kPa, Liquid | 1049.74 kg/m3 | –
399.68 K, 81.08 kPa, Gas | – | 163.78 m/s
399.69 K, 81.05 kPa, Gas | – | 163.76 m/s
399.69 K, 81.08 kPa, Gas | – | 163.78 m/s
399.7 K, 81.05 kPa, Gas | – | 163.76 m/s
399.7 K, 200.81 kPa, Gas | – | 161.43 m/s
399.7 K, 200.89 kPa, Gas | – | 161.43 m/s
399.71 K, 200.94 kPa, Gas | – | 161.42 m/s
399.71 K, 201.02 kPa, Gas | – | 161.42 m/s
399.72 K, 579.09 kPa, Gas | – | 153.49 m/s
399.72 K, 579.15 kPa, Gas | – | 153.49 m/s
399.72 K, 579.18 kPa, Gas | – | 153.49 m/s
399.73 K, 1002.2 kPa, Gas | – | 143.33 m/s
399.74 K, 1002.2 kPa, Gas | – | 143.33 m/s
399.74 K, 1416.7 kPa, Gas | – | 131.29 m/s and 131.29 m/s
399.75 K, 1416.7 kPa, Gas | – | 131.29 m/s and 131.29 m/s
399.93 K, 1343.9 kPa, Gas | 67.621 kg/m3 | –
399.94 K, 1613 kPa, Gas | 87.993 kg/m3 | –
399.98 K, 2020.5 kPa, Fluid (supercritical or subcritical phases) | 946.51 kg/m3 | –
399.98 K, 2500.1 kPa, Fluid (supercritical or subcritical phases) | 955.38 kg/m3 | –
399.98 K, 4501.4 kPa, Fluid (supercritical or subcritical phases) | 985.13 kg/m3 | –
400.03 K, 468.2 kPa, Gas | 19.679 kg/m3 | –
400.03 K, 596.5 kPa, Gas | 25.617 kg/m3 and 25.615 kg/m3 | –
404.94 K, 3251 kPa, Fluid (supercritical or subcritical phases) | 944.76 kg/m3 | –
409.92 K, 1401.3 kPa, Gas | 67.63 kg/m3 | –
409.92 K, 1693.1 kPa, Gas | 87.977 kg/m3 | –
409.95 K, 2426 kPa, Fluid (supercritical or subcritical phases) | 899.12 kg/m3 | –
409.95 K, 4566.2 kPa, Fluid (supercritical or subcritical phases) | 944.3 kg/m3 | –
410.01 K, 488.6 kPa, Gas | 19.972 kg/m3 | –
410.01 K, 620.7 kPa, Gas | 25.887 kg/m3 and 25.885 kg/m3 | –
414.94 K, 3540.5 kPa, Fluid (supercritical or subcritical phases) | 898.69 kg/m3 | –
419.55 K, 79.93 kPa, Gas | – | 167.87 m/s
419.56 K, 79.92 kPa, Gas | – | 167.86 m/s
419.56 K, 79.93 kPa, Gas | – | 167.87 m/s
419.56 K, 79.94 kPa, Gas | – | 167.88 m/s
419.56 K, 79.95 kPa, Gas | – | 167.88 m/s and 167.89 m/s
419.56 K, 196.42 kPa, Gas | – | 165.91 m/s
419.56 K, 196.56 kPa, Gas | – | 165.91 m/s and 165.91 m/s
419.57 K, 196.49 kPa, Gas | – | 165.9 m/s and 165.9 m/s
419.57 K, 196.51 kPa, Gas | – | 165.9 m/s
419.57 K, 196.56 kPa, Gas | – | 165.9 m/s
419.57 K, 196.57 kPa, Gas | – | 165.9 m/s
419.57 K, 196.62 kPa, Gas | – | 165.9 m/s
419.57 K, 196.63 kPa, Gas | – | 165.91 m/s
419.58 K, 196.44 kPa, Gas | – | 165.9 m/s
419.58 K, 196.51 kPa, Gas | – | 165.9 m/s
419.58 K, 398.05 kPa, Gas | – | 162.39 m/s
419.58 K, 398.07 kPa, Gas | – | 162.39 m/s
419.58 K, 398.08 kPa, Gas | – | 162.39 m/s
419.59 K, 803.55 kPa, Gas | – | 154.82 m/s
419.59 K, 803.59 kPa, Gas | – | 154.82 m/s
419.59 K, 803.61 kPa, Gas | – | 154.82 m/s
419.59 K, 1212.4 kPa, Gas | – | 146.32 m/s
419.6 K, 1212.4 kPa, Gas | – | 146.32 m/s
419.6 K, 1723.5 kPa, Gas | – | 133.88 m/s and 133.89 m/s
419.61 K, 2072 kPa, Gas | – | 123.58 m/s
419.61 K, 2072.1 kPa, Gas | – | 123.58 m/s
419.62 K, 2072.1 kPa, Gas | – | 123.58 m/s
419.63 K, 2072.3 kPa, Gas | – | 123.59 m/s
419.65 K, 2072.5 kPa, Gas | – | 123.6 m/s
419.67 K, 2072.7 kPa, Gas | – | 123.61 m/s
419.68 K, 2072.8 kPa, Gas | – | 123.62 m/s
419.69 K, 2072.8 kPa, Gas | – | 123.62 m/s
419.69 K, 2072.9 kPa, Gas | – | 123.63 m/s
419.9 K, 1457.6 kPa, Gas | 67.627 kg/m3 | –
419.92 K, 1771.2 kPa, Gas | 87.947 kg/m3 | –
419.94 K, 4667.5 kPa, Fluid (supercritical or subcritical phases) | 898.26 kg/m3 | –
419.95 K, 2831.8 kPa, Fluid (supercritical or subcritical phases) | 841.35 kg/m3 | –
419.99 K, 510 kPa, Gas | 20.295 kg/m3 | –
420 K, 508.9 kPa, Gas | 20.248 kg/m3 | –
420 K, 645.1 kPa, Gas | 26.148 kg/m3 and 26.149 kg/m3 | –
424.94 K, 3746.2 kPa, Fluid (supercritical or subcritical phases) | 841 kg/m3 | –
429.9 K, 1513.1 kPa, Gas | 67.627 kg/m3 | –
429.9 K, 1847.8 kPa, Gas | 87.931 kg/m3 | –
429.94 K, 3475.7 kPa, Fluid (supercritical or subcritical phases) | 782.51 kg/m3 | –
429.94 K, 4675.4 kPa, Fluid (supercritical or subcritical phases) | 840.63 kg/m3 | –
430 K, 530.5 kPa, Gas | 20.558 kg/m3 | –
430 K, 669.6 kPa, Gas | 26.403 kg/m3 | –
434.94 K, 4229.4 kPa, Fluid (supercritical or subcritical phases) | 782.14 kg/m3 | –
439.89 K, 1922.8 kPa, Gas | 87.898 kg/m3 | –
439.9 K, 1568.8 kPa, Gas | 67.676 kg/m3 | –
439.95 K, 1137.4 kPa, Gas | 46.158 kg/m3 | –
439.95 K, 1568.5 kPa, Gas | 67.645 kg/m3 | –
440 K, 255.4 kPa, Gas | 9.339 kg/m3 | –
440 K, 550.9 kPa, Gas | 20.806 kg/m3 | –
440 K, 551.6 kPa, Gas | 20.832 kg/m3 | –
440 K, 694.2 kPa, Gas | 26.651 kg/m3 | –
440 K, 694.3 kPa, Gas | 26.653 kg/m3 | –
443.94 K, 475.9 kPa, Fluid (supercritical or subcritical phases) | 17.642 kg/m3 | –
443.94 K, 547.2 kPa, Fluid (supercritical or subcritical phases) | 20.44 kg/m3 | –
443.94 K, 1352.4 kPa, Fluid (supercritical or subcritical phases) | 55.612 kg/m3 | –
443.94 K, 1768.1 kPa, Fluid (supercritical or subcritical phases) | 77.205 kg/m3 | –
443.94 K, 2074.3 kPa, Fluid (supercritical or subcritical phases) | 95.28 kg/m3 | –
443.94 K, 2390.8 kPa, Fluid (supercritical or subcritical phases) | 116.63 kg/m3 | –
443.94 K, 2690.9 kPa, Fluid (supercritical or subcritical phases) | 140.42 kg/m3 | –
443.94 K, 2893.8 kPa, Fluid (supercritical or subcritical phases) | 159.35 kg/m3 | –
443.94 K, 3102.5 kPa, Fluid (supercritical or subcritical phases) | 182.38 kg/m3 | –
443.94 K, 3197.9 kPa, Fluid (supercritical or subcritical phases) | 194.61 kg/m3 | –
443.94 K, 3199.8 kPa, Fluid (supercritical or subcritical phases) | 194.61 kg/m3 | –
443.94 K, 3703.8 kPa, Fluid (supercritical or subcritical phases) | 306.77 kg/m3 | –
443.94 K, 3908.6 kPa, Fluid (supercritical or subcritical phases) | 504.42 kg/m3 | –
443.95 K, 3858 kPa, Fluid (supercritical or subcritical phases) | 426.27 kg/m3 | –
443.95 K, 4009.4 kPa, Fluid (supercritical or subcritical phases) | 593.8 kg/m3 | –
443.95 K, 4514.9 kPa, Fluid (supercritical or subcritical phases) | 704.98 kg/m3 | –
443.95 K, 5618.8 kPa, Fluid (supercritical or subcritical phases) | 781.53 kg/m3 | –

Liquid
Conditions | vapor or sublimation pressure [kPa]
380.03 K | 1207.4
390.04 K | 1480.7
400.04 K | 1798.9
410.03 K | 2166.7
415.03 K | 2371
420 K | 2589.3
424.98 K | 2823.8
429.91 K | 3073.2
429.98 K | 3076.8
434.91 K | 3346
434.97 K | 3349.8
435.91 K | 3403.5
437.91 K | 3521
